ChEMBL document CHEMBL3991601, “The target landscape of clinical kinase drugs” (Science, 2017)
Calls of active or inactive are those of the source.

Experiments:
dCTP pyrophosphatase 1 = target: T1, dCTP pyrophosphatase 1 (Homo sapiens, UniProt Q9H773)
T1 sequence (Q9H773 whole entry): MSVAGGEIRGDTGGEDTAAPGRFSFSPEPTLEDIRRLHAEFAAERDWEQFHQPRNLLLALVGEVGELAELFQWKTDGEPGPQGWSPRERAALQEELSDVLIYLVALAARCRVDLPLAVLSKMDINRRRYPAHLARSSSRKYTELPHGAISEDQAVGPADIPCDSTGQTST

[1] = target: Mitogen-activated protein kinase 11 (Homo sapiens, UniProt Q15759)
Sequence of Mitogen-activated protein kinase 11 (Q15759 whole entry): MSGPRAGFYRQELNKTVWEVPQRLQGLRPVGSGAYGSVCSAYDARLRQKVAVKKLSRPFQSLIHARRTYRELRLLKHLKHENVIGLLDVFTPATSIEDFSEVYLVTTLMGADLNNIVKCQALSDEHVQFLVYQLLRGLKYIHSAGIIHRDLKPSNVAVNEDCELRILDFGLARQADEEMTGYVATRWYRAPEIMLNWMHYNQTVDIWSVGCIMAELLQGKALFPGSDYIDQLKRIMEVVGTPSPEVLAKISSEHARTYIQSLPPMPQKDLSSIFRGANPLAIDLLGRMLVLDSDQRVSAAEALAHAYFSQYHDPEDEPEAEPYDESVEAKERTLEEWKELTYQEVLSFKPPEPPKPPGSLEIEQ

[2] = target: DNA topoisomerase 2-alpha (Homo sapiens, UniProt P11388)
Sequence of DNA topoisomerase 2-alpha (P11388 whole entry): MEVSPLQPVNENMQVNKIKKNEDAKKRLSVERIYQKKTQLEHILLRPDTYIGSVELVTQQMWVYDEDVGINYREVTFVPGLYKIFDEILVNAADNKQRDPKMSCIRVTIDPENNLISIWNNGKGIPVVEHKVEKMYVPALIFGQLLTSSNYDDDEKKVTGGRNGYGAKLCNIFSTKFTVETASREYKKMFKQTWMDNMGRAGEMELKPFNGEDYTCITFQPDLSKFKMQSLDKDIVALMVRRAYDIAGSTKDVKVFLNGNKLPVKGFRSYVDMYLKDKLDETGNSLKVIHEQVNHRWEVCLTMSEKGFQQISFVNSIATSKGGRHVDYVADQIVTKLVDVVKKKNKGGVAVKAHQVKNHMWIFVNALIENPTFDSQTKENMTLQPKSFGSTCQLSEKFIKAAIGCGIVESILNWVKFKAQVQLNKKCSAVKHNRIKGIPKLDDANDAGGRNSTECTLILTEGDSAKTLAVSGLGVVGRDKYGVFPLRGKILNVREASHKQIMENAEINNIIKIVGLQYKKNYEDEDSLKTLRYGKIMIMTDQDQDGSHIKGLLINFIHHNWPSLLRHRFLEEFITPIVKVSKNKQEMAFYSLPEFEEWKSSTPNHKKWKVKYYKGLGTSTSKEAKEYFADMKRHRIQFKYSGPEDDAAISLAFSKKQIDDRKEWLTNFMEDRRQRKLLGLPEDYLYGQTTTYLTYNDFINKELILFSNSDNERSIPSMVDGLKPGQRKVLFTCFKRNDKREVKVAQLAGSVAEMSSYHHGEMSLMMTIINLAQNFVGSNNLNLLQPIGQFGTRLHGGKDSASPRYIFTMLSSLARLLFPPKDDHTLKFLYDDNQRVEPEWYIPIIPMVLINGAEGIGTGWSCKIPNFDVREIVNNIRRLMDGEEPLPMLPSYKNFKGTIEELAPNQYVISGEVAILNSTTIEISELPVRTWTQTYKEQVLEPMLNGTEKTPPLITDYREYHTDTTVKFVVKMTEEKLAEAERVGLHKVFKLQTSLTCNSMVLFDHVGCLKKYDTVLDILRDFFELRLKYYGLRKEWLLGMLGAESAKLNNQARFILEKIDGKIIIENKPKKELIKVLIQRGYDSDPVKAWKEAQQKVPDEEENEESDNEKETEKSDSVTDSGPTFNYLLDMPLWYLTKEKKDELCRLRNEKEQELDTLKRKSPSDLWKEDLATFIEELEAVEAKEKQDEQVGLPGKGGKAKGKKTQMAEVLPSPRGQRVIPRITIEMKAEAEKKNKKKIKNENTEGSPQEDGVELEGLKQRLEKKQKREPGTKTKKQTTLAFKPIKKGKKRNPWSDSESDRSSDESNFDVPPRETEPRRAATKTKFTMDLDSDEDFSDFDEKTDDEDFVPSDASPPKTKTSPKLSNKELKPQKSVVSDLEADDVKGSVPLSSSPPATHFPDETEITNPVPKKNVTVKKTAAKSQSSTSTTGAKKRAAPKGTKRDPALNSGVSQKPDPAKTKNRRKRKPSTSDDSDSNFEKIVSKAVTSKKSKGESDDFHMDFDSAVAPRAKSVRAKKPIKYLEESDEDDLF

[3] = target: Cyclin-dependent kinase 4 (Homo sapiens, UniProt P11802)
Sequence of Cyclin-dependent kinase 4 (P11802 whole entry): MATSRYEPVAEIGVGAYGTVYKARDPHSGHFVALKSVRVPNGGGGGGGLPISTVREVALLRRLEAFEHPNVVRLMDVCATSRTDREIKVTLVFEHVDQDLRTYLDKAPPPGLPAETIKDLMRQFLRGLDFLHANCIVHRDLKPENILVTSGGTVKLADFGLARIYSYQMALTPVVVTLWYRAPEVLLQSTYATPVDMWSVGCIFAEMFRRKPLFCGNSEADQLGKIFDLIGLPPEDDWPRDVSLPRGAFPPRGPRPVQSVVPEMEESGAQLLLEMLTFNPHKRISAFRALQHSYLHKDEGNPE

[4] = target: Serine/threonine-protein kinase/endoribonuclease IRE1 (Homo sapiens, UniProt O75460)
[5] = target: Calcium/calmodulin-dependent protein kinase kinase 2 (Homo sapiens, UniProt Q96RR4)
[6] = target: Ribosomal protein S6 kinase alpha-6 (Homo sapiens, UniProt Q9UK32)
[7] = target: Tyrosine-protein kinase FRK (Homo sapiens, UniProt P42685)
Sequence of Tyrosine-protein kinase FRK (P42685 whole entry): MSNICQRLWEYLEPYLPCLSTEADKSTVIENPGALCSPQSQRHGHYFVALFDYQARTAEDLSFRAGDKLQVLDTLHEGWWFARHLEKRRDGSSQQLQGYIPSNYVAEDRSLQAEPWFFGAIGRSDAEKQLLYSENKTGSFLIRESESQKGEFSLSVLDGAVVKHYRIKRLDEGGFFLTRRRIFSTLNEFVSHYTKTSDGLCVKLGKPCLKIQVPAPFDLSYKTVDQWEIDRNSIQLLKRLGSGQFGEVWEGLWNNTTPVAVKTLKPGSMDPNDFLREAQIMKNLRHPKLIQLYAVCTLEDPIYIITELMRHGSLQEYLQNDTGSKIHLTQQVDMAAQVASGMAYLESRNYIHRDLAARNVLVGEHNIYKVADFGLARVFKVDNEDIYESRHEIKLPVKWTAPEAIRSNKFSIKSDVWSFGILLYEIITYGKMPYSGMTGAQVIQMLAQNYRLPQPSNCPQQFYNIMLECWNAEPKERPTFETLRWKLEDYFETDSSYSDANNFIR

[8] = target: Serine/threonine-protein kinase MRCK alpha (Homo sapiens, UniProt Q5VT25)
Sequence of Serine/threonine-protein kinase MRCK alpha (Q5VT25 whole entry): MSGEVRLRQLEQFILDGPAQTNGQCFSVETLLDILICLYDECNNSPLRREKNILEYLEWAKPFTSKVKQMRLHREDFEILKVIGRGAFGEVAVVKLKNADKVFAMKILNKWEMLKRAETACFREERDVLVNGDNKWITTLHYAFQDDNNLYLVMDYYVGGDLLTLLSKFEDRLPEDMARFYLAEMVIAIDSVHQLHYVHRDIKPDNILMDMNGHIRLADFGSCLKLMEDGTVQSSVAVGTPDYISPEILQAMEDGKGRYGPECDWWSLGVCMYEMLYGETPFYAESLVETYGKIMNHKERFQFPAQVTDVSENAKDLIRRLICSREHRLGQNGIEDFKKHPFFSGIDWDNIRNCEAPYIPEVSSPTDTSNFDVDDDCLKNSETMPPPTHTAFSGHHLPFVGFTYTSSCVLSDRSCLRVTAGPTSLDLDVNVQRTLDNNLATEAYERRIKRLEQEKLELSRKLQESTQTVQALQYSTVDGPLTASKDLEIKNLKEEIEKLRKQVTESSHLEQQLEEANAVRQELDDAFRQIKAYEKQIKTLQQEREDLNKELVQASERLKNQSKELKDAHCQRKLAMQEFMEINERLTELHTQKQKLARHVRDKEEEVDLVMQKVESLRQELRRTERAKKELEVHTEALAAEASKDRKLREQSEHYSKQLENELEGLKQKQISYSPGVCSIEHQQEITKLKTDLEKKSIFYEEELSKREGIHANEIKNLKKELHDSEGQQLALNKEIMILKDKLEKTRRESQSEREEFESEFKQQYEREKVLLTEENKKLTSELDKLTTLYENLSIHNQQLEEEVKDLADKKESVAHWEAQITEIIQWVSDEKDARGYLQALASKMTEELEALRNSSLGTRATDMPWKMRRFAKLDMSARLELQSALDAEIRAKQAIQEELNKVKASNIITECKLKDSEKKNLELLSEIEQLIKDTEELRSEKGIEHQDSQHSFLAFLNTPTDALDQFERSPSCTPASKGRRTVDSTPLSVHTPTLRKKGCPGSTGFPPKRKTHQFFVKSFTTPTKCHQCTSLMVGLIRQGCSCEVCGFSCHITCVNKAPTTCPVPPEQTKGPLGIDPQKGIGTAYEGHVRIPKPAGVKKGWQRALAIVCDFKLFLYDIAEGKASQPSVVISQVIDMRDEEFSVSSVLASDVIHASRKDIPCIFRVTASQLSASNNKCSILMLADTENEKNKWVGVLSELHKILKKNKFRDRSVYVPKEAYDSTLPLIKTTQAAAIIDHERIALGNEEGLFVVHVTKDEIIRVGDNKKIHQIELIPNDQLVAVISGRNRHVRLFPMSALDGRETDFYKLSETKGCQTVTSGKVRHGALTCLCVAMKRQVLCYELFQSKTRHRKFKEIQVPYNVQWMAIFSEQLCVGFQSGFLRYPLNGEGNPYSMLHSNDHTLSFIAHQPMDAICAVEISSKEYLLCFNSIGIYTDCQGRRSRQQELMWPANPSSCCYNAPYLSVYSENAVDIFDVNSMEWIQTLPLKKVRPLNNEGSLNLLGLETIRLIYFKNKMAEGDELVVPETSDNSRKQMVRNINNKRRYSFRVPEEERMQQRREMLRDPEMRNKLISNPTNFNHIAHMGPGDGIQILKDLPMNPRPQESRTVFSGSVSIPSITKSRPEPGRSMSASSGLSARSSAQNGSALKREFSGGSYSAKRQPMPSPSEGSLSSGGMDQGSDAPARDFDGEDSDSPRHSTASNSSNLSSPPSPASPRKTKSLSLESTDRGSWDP

[9] = target: TRAF2 and NCK-interacting protein kinase (Homo sapiens, UniProt Q9UKE5)
[10] = target: Tyrosine-protein kinase Lck (Homo sapiens, UniProt P06239)
Sequence of Tyrosine-protein kinase Lck (P06239 whole entry): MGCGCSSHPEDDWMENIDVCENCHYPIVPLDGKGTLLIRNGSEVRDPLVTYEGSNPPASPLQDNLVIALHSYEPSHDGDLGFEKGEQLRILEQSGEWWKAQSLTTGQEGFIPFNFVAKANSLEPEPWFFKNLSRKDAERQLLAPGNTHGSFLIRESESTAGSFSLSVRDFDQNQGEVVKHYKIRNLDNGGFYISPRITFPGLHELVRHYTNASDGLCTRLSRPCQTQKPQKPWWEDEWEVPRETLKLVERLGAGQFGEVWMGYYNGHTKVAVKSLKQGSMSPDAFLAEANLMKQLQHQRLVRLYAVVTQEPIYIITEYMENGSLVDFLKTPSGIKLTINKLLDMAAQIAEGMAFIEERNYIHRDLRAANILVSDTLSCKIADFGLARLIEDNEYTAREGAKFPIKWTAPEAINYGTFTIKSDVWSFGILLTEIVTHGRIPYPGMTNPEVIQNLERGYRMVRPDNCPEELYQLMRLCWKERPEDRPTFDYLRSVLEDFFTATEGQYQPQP

Actin-related protein 2 = Actin-related protein 2 (Homo sapiens, UniProt P61160)
[11] = target: T2, Mitogen-activated protein kinase kinase kinase 5 (Homo sapiens, UniProt Q99683)
T2 sequence (Q99683 whole entry): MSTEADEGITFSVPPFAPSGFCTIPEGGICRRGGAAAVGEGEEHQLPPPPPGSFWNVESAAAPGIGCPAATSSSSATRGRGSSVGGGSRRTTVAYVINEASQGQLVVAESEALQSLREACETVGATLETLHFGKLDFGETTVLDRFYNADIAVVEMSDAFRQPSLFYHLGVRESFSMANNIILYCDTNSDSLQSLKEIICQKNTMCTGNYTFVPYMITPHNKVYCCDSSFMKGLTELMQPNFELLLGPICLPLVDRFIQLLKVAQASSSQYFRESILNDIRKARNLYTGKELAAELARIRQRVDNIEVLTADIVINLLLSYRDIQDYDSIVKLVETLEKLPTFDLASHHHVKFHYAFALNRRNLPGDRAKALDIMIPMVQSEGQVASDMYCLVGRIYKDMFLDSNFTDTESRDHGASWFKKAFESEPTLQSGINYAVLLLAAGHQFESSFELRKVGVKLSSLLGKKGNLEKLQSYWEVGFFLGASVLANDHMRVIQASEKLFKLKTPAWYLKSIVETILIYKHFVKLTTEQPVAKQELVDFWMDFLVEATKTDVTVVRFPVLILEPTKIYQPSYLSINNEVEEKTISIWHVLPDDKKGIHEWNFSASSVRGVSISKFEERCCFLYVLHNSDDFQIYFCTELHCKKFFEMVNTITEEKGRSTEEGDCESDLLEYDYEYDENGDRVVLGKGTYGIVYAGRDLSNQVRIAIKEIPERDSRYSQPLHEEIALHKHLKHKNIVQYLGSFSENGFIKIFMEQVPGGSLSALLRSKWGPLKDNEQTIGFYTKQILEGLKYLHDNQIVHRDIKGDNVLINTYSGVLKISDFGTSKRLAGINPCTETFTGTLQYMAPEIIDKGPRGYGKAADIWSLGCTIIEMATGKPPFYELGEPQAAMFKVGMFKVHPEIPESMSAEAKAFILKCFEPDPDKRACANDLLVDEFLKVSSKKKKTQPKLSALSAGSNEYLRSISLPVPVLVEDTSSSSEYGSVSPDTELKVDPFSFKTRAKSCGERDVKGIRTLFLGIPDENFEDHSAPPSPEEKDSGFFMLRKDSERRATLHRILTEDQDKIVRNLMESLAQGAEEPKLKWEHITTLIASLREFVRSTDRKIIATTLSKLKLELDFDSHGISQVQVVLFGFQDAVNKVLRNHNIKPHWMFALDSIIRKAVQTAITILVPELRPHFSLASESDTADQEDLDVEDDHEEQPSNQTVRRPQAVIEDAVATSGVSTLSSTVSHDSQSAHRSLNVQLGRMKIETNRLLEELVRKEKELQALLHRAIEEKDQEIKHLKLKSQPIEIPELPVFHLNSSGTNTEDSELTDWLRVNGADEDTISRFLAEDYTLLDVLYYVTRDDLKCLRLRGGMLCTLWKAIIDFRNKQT

[12] = target: T3, Ras-related protein Rab-10 (Homo sapiens, UniProt P61026)
T3 sequence (P61026 whole entry): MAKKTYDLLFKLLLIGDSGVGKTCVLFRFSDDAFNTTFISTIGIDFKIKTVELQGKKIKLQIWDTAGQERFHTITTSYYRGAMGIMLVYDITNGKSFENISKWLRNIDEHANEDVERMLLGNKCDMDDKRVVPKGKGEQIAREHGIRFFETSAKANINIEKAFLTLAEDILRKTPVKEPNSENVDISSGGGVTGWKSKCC
Further: in the data inactive means no Kd found up to 30 µM.

| SMILES | Kd (dCTP pyrophosphatase 1) | Kd [1] | Kd [2] | Kd [3] | Kd [4] | Kd [5] | Kd [6] | Kd [7] | Kd [8] | Kd [9] | Kd [10] | Kd (Actin-related protein 2) | Kd [11] | Kd [12] |
| --- | --- | --- | --- | --- | --- | --- | --- | --- | --- | --- | --- | --- | --- | --- |
| COC(=O)[C@@]1(O)C[C@H]2O[C@]1(C)n1c3ccccc3c3c4c(c5c6ccccc6n2c5c31)C(=O)NC4 [K-252A] | > 30 µM (inactive) | > 30 µM (inactive) | > 30 µM (inactive) | 0.014 µM | 0.019 µM (active) | 2.28 µM (active) | 2.18 µM (active) | > 30 µM (inactive) | > 30 µM (inactive) | 0.01 µM (active) | > 30 µM (inactive) | > 30 µM (inactive) | 0.182 µM (active) | > 30 µM (inactive) |
| COc1ccc(-c2ccc3c(N4CCOC[C@@H]4C)nc(N4CCOC[C@@H]4C)nc3n2)cc1CO [AZD-8055] | > 30 µM (inactive) | > 30 µM (inactive) | > 30 µM (inactive) | > 30 µM (inactive) | > 30 µM (inactive) | > 30 µM (inactive) | > 30 µM (inactive) | > 30 µM (inactive) | > 30 µM (inactive) | > 30 µM (inactive) | > 30 µM (inactive) | > 30 µM (inactive) | > 30 µM (inactive) | > 30 µM (inactive) |
| Cc1ccc(-n2nc(C(C)(C)C)cc2NC(=O)NCc2cc(F)ccc2Oc2ccc3c(cnn3CCO)c2)cc1 [PEXMETINIB] | > 30 µM (inactive) | 0.192 µM (active) | > 30 µM (inactive) | > 30 µM (inactive) | > 30 µM (inactive) | > 30 µM (inactive) | > 30 µM (inactive) | 1.55 µM (active) | > 30 µM (inactive) | > 30 µM (inactive) | > 30 µM (inactive) | > 30 µM (inactive) | > 30 µM (inactive) | > 30 µM (inactive) |

Now from value to compound:

| Kd (dCTP pyrophosphatase 1) | Kd [1] | Kd [2] | Kd [3] | Kd [4] | Kd [5] | Kd [6] | Kd [7] | Kd [8] | Kd [9] | Kd [10] | Kd (Actin-related protein 2) | Kd [11] | Kd [12] | SMILES |
| --- | --- | --- | --- | --- | --- | --- | --- | --- | --- | --- | --- | --- | --- | --- |
| > 30 µM (inactive) | > 30 µM (inactive) | > 30 µM (inactive) | > 30 µM (inactive) | > 30 µM (inactive) | > 30 µM (inactive) | > 30 µM (inactive) | 0.724 µM (active) | > 30 µM (inactive) | > 30 µM (inactive) | > 30 µM (inactive) | > 30 µM (inactive) | > 30 µM (inactive) | > 30 µM (inactive) | O=C(O)[C@]1(Cc2cccc(Nc3nccs3)n2)CC[C@@H](Oc2cccc(Cl)c2F)CC1 [MK-5108] |
| > 30 µM (inactive) | > 30 µM (inactive) | > 30 µM (inactive) | > 30 µM (inactive) | > 30 µM (inactive) | > 30 µM (inactive) | > 30 µM (inactive) | > 30 µM (inactive) | > 30 µM (inactive) | 1.39 µM | > 30 µM (inactive) | > 30 µM (inactive) | > 30 µM (inactive) | > 30 µM (inactive) | COc1cc(CCc2cc(NC(=O)c3ccc(N4C[C@@H](C)N[C@@H](C)C4)cc3)n[nH]2)cc(OC)c1 [AZD-4547] |
